Data set [1] has as its system male dd-mice. The experiment in a line: Acute toxicity. Conditions: mouse, in vivo, 10080 min; for MLD i.p.: ip; for MLD p.o.: po. The protocol:
The compounds were orally administered and intraperitoneally administered to male dd-mice weighing 20 to 25 g. […] was determined by observing the mortality for seven days after the administration.

In data set [2] the test system is coronary vasospasm model (lysine-vasopressin). Briefly: Effects on coronary vasospasm model (lysine-vasopressin test), inhibition of ST-segment elevation. In kind it is in vivo, male Wistar rats. Conditions: Rattus norvegicus.
Setting [3] is: ip, 20 min before anesthetization, lysine-vasopressin 0.3 I.U./kg iv, MED = minimum dose with depression rate of 20% or higher, read-out: Coronary vasoconstriction model MED i.p.
Setting [4] is: po, 30 min before anesthetization, lysine-vasopressin 0.3 I.U./kg iv, MED = minimum dose with depression rate of 20% or higher, read-out: Coronary vasoconstriction model MED p.o.

Where a name gives a salt, the structure may show the parent alone. Read-outs that look alike come from different tables or passages of the source.

As to `O=[N+]([O-])O[C@H]1CO[C@H]2[C@@H]1OC[C@@H]2N1CCN(CCCSc2ccccc2)CC1` [Compound 1, 5-Deoxy-5-[4-(3-phenylthiopropyl)piperazin-1-yl]-1.4;3.6-dianhydro-L-iditol2-nitrate hydrochloride], the MLD i.p. in data set [1] is over 100 mg/kg. In data set [1], the MLD p.o. is recorded as over 150 mg/kg. In addition, the minimal effective dose is under 25 mg/kg in data set [2] (setting [3]) and under 30 mg/kg in data set [2] (setting [4]).

On to `O=[N+]([O-])O[C@H]1CO[C@H]2[C@@H]1OC[C@@H]2N1CCN(CCCSc2ccncc2)CC1` [Compound 12, 5-Deoxy-5-[4-[3-(pyridin-4-ylthio)propyl]piperazin-1-yl]-1.4;3.6-dianhydro-L-iditol 2-nitrate hydrochloride], for which, in data set [1], the MLD i.p. is over 100 mg/kg and the MLD p.o. is over 300 mg/kg. The minimal effective dose in data set [2] (setting [4]) is under 30 mg/kg.

For the compound `O=C(O)Cc1ccc(SCCCN2CCN([C@H]3CO[C@H]4[C@@H]3OC[C@@H]4O[N+](=O)[O-])CC2)cc1` [Compound 16, 5-[4-[3-(4-Carboxymethylphenylthio)propyl]piperazin-1-yl]-5-deoxy-1.4;3.6-dianhydro-L-iditol 2-nitrate], in data set [1], the MLD i.p. is listed as over 100 mg/kg and the MLD p.o. is listed as over 300 mg/kg. Besides, in data set [2] (setting [4]), the minimal effective dose was under 30 mg/kg.

As for `O=[N+]([O-])O[C@H]1CO[C@H]2[C@@H]1OC[C@@H]2N1CCN(CCCn2ccnc2)CC1` [Compound 21, 5-Deoxy-5-[4-[3-(imidazol-1-yl)propyl]piperazin-1-yl]-1.4;3.6-dianhydro-L-iditol 2-nitrate hydrochloride], in data set [1], the MLD i.p. is reported as over 100 mg/kg and the MLD p.o. was over 300 mg/kg. Besides, the minimal effective dose in data set [2] (setting [4]) was under 30 mg/kg.

In data set [1], `O=[N+]([O-])O[C@H]1CO[C@H]2[C@@H]1OC[C@@H]2N1CCN(CCCn2cnc3ccccc32)CC1` [Compound 22, 5-[4-[3-(Benzimidazol-1-yl)propyl]piperazin-1-yl]-5-deoxy-1.4;3.6-dianhydro-L-iditol 2-nitrate hydrochloride] returned an MLD i.p. of over 100 mg/kg and an MLD p.o. of over 300 mg/kg. Also, in data set [2] (setting [3]), the minimal effective dose was under 25 mg/kg. Further, the minimal effective dose in data set [2] (setting [4]) was under 30 mg/kg.

For `Cc1cc2ncn(CCCN3CCN([C@H]4CO[C@H]5[C@@H]4OC[C@@H]5O[N+](=O)[O-])CC3)c2cc1C` [Compound 23, 5-Deoxy-5-[4-[3-(5,6-dimethylbenzimidazol-1-yl)propyl]-piperazin-1-yl]-1.4;3.6-dianhydro-L-iditol 2-nitrate hydrochloride], in data set [1], the MLD i.p. was over 100 mg/kg and the MLD p.o. is given as over 300 mg/kg. In addition, the minimal effective dose in data set [2] (setting [4]) was under 30 mg/kg.

In data set [1], `O=[N+]([O-])O[C@H]1CO[C@H]2[C@@H]1OC[C@@H]2N1CCN(CCCn2ccc3ccccc32)CC1` [Compound 27, 5-Deoxy-5-[4-[3-(indol-1-yl)propyl]piperazin-1-yl]-1.4;3.6-dianhydro-L-iditol 2-nitrate hydrochloride] returned an MLD i.p. of over 100 mg/kg and an MLD p.o. of over 300 mg/kg. The minimal effective dose in data set [2] (setting [4]) is under 30 mg/kg.

As to `O=[N+]([O-])O[C@H]1CO[C@H]2[C@@H]1OC[C@@H]2N1CCN(CCCn2cc3ccccc3n2)CC1` [Compound 31, 5-Deoxy-5-[4-[3-(indazol-2-yl)propyl]piperazin-1-yl]-1.4; 3.6-dianhydro-L-iditol 2-nitrate hydrochloride], in data set [1], the MLD i.p. is over 100 mg/kg and the MLD p.o. is recorded as over 300 mg/kg. In addition, the minimal effective dose in data set [2] (setting [3]) is under 25 mg/kg.

In data set [1], `O=[N+]([O-])O[C@H]1CO[C@H]2[C@@H]1OC[C@@H]2N1CCN(CCc2nc3ccccc3[nH]2)CC1` [Compound 57, 5-[4-[2-(Benzimidazol-2-yl)ethyl]piperazin-1-yl]-5-deoxy-1.4;3.6-dianhydro-L-iditol 2-nitrate hydrochloride] had an MLD i.p. of over 100 mg/kg and an MLD p.o. of over 300 mg/kg. The minimal effective dose in data set [2] (setting [3]) is under 25 mg/kg.

As to `O=[N+]([O-])O[C@H]1CO[C@H]2[C@@H]1OC[C@@H]2N1CCN(c2nc3ccccc3s2)CC1` [Compound 58, 5-[4-(Benzothiazol-2-yl)piperazin-1-yl]-5-deoxy-1.4;3.6-dianhydro-L-iditol 2-nitrate hydrochloride], in data set [1], the MLD i.p. is on record as over 100 mg/kg and the MLD p.o. is recorded as over 300 mg/kg. The minimal effective dose in data set [2] (setting [3]) is under 25 mg/kg.

Turning to `O=[N+]([O-])O[C@H]1CO[C@H]2[C@@H]1OC[C@@H]2N1CCN(c2nnnn2-c2ccccc2)CC1` [Compound 60, 5-Deoxy-5-[4-(1-phenyl-1H-tetrazol-5-yl)piperazin-1-yl-]-1.4;3.6-dianhydro-L-iditol 2-nitrate hydrochloride], in data set [1], the MLD i.p. is over 100 mg/kg and the MLD p.o. was over 300 mg/kg. Besides, the minimal effective dose in data set [2] (setting [3]) is under 25 mg/kg.

As to `O=[N+]([O-])O[C@H]1CO[C@H]2[C@@H]1OC[C@@H]2N1CCN(c2nc3ccccc3[nH]2)CC1` [Compound 76, 5-[4-(Benzimidazol-2-yl)piperazin-1-yl]-5-deoxy-1.4;3.6-dianhydro-L-iditol 2-nitrate hydrochloride], in data set [1], the MLD i.p. is over 100 mg/kg and the MLD p.o. is on record as over 300 mg/kg. In data set [2] (setting [4]), the minimal effective dose is under 30 mg/kg.

In the case of `COc1cc2nc(N3CCN([C@H]4CO[C@H]5[C@@H]4OC[C@@H]5O[N+](=O)[O-])CC3)nc(N)c2cc1OC` [Compound 78, 5-[4-(4-Amino-6,7-dimethoxyquinazolin-2-yl)piperazin-1-yl]-5-deoxy-1.4;3.6-dianhydro-L-iditol 2-nitrate hydrochloride], in data set [1], the MLD i.p. is listed as over 100 mg/kg and the MLD p.o. is on record as over 300 mg/kg. Besides, the minimal effective dose in data set [2] (setting [4]) is under 30 mg/kg.

In turn, `O=C(c1cccnc1)N1CCN([C@H]2CO[C@H]3[C@@H]2OC[C@@H]3O[N+](=O)[O-])CC1` [Compound 80] gave an MLD i.p. in data set [1] of over 100 mg/kg. This compound came in with an MLD p.o. in data set [1] of over 300 mg/kg. Further, the minimal effective dose in data set [2] (setting [3]) was under 25 mg/kg; in data set [2] (setting [4]), under 30 mg/kg.

In data set [1], `O=C(c1ccccn1)N1CCN([C@H]2CO[C@H]3[C@@H]2OC[C@@H]3O[N+](=O)[O-])CC1` [Compound 81, 5-Deoxy-5-[4-(pyridin-2-yl)carbonylpiperazin-1-yl]-1.4;3.6-dianhydro-L-iditol 2-nitrate hydrochloride] gave an MLD i.p. of over 100 mg/kg and an MLD p.o. of over 300 mg/kg. The minimal effective dose in data set [2] (setting [4]) is under 30 mg/kg.

In data set [1], `O=C(c1ccco1)N1CCN([C@H]2CO[C@H]3[C@@H]2OC[C@@H]3O[N+](=O)[O-])CC1` [Compound 83, 5-Deoxy-5-[4-(furan-2-yl)carbonylpiperazin-1-yl]-1.4;3.6-dianhydro-L-iditol2-nitrate hydrochloride] gave an MLD i.p. of over 100 mg/kg and an MLD p.o. of over 300 mg/kg. Also, the minimal effective dose in data set [2] (setting [4]) is under 30 mg/kg.

On to `O=C(c1ccccc1)N1CCN([C@H]2CO[C@H]3[C@@H]2OC[C@@H]3O[N+](=O)[O-])CC1` [Compound 84, 5-(4-Benzoylpiperazin-1-yl)-5-deoxy-1.4;3.6-dianhydro-L-iditol 2-nitrate hydrochloride], for which, in data set [1], the MLD i.p. was over 100 mg/kg and the MLD p.o. is over 300 mg/kg. For the same compound, the minimal effective dose in data set [2] (setting [3]) is under 25 mg/kg.

With `COc1ccc(C(=O)N2CCN([C@H]3CO[C@H]4[C@@H]3OC[C@@H]4O[N+](=O)[O-])CC2)c(OC)c1OC` [Compound 87, 5-Deoxy-5-[4-(2,3,4-trimethoxybenzoyl)piperazin-1-yl]-1.4;3.6-dianhydro-L-iditol 2-nitratehydrochloride], in data set [1], the MLD i.p. is on record as over 100 mg/kg and the MLD p.o. is over 300 mg/kg. The minimal effective dose in data set [2] (setting [4]) is under 30 mg/kg.

In data set [1], `O=C(c1ccc(Cl)nc1)N1CCN([C@H]2CO[C@H]3[C@@H]2OC[C@@H]3O[N+](=O)[O-])CC1` [Compound 89, 5-[4-(6-Chloropyridin-3-yl)carbonylpiperazin-1-yl]-5-deoxy-1.4;3.6-dianhydro-L-iditol 2-nitrate hydrochloride] yielded an MLD i.p. of over 100 mg/kg and an MLD p.o. of over 300 mg/kg. In addition, the minimal effective dose in data set [2] (setting [4]) was under 30 mg/kg.

In data set [1], `Cc1ccc(C(=O)N2CCN([C@H]3CO[C@H]4[C@@H]3OC[C@@H]4O[N+](=O)[O-])CC2)cn1` [Compound 93, 5-Deoxy-5-[4-(6-methylpyridin-3-yl)carbonylpiperazin-1-yl]-1.4;3.6-dianhydro-L-iditol 2-nitrate hydrochloride] displayed an MLD i.p. of over 100 mg/kg and an MLD p.o. of over 300 mg/kg. In addition, the minimal effective dose in data set [2] (setting [4]) is under 30 mg/kg.

Regarding `O=[N+]([O-])O[C@@H]1CO[C@H]2[C@@H]1OC[C@@H]2N1CCN(CCCSc2ccccc2)CC1` [Compound 96, 2-Deoxy-2-[4-(3-phenylthiopropyl)piperazin-1-yl]-1.4;3.6-dianhydro-D-glucitol 5-nitrate hydrochloride], in data set [1], the MLD i.p. is listed as over 100 mg/kg and the MLD p.o. is over 300 mg/kg. The minimal effective dose in data set [2] (setting [3]) is under 25 mg/kg.

Turning to `O=C(c1cccnc1)N1CCN([C@H]2CO[C@H]3[C@@H]2OC[C@@H]3O)CC1` [Compound 117, 5-Deoxy-5-[4-(pyridin-3-yl)carbonylpiperazin-1-yl]-1.4;3.6-dianhydro-L-iditol], the minimal effective dose in data set [2] (ip, read-out: Coronary vasoconstriction model MED i.p.) is under 25 mg/kg; in data set [2] (po, read-out: Coronary vasoconstriction model MED p.o.) it was under 30 mg/kg.

As for `O=C(NCCO[N+](=O)[O-])c1cccnc1` [Nicorandil, reference compound], the minimal effective dose in data set [2] (setting [3]) was under 30 mg/kg.

These data come from patent US5053408A, “Hexitol derivatives having vasodilative activity” (Kyowa Hakko Kogyo Co., Ltd., priority 1989, dated 1991).
